Assay results as given in patent US20250313546A1, “NUCLEIC ACID BINDERS” (UNIVERSITY OF STRATHCLYDE, priority 2022, published 2025).
Converted amounts (≈) assume the structure as drawn.

Key:
Assay in all cases: Antibacterial MIC, broth microdilution (CLSI)
Type in all cases: cell-based
[1] = tested on: Staphylococcus aureus (ATCC 43300); settings: Staphylococcus aureus, ATCC43300; read-out: MIC80 S. aureus
[2] = tested on: Enterococcus faecalis (ATCC 51299); settings: Enterococcus faecalis, ATCC51299; read-out: MIC80 E. faecalis
[3] = tested on: Escherichia coli (ATCC 25922); settings: Escherichia coli, ATCC25922; read-out: MIC80 E. coli

SMILES	MIC80 [1] [µM]	MIC80 [2] [µM]	MIC80 [3] [µM]
Cn1cc(NC(=O)c2cc(NC(=O)c3ccc(/C=C/c4cnc5ccccc5c4)cc3)cn2C)cc1C(=O)NCCCCC(=N)N [II1, (E)-N-(5-amino-5-iminopentyl)-1-methyl-4-(1-methyl-4-(4-(2-(quinolin-3-yl)vinyl)benzamido)-1H-pyrrole-2-carboxamido)-1H-pyrrole-2-carboxamide]	25 to 100 (≈ 15.4 to 61.7 µg/mL)	> 100	> 100
CN(C)c1ccc(/C=C/c2ccc(C(=O)Nc3cc(C(=O)Nc4cc(C(=O)NCCCCC(=N)N)n(C)c4)n(C)c3)cn2)cc1 [II2, (E)-N-(5-((5-((5-amino-5-iminopentyl)carbamoyl)-1-methyl-1H-pyrrol-3-yl)carbamoyl)-1-methyl-1H-pyrrol-3-yl)-6-(4-(dimethylamino)styryl)nicotinamide]	5 to 25 (≈ 3.05 to 15.2 µg/mL)	5 to 25 (≈ 3.05 to 15.2 µg/mL)	> 100
Cn1cc(NC(=O)c2cc(NC(=O)c3ccc(/C=C/c4cnc5ccccc5c4)cc3)cn2C)cc1C(=O)NCCCCCC(=N)N [II3, (E)-N-(6-amino-6-iminohexyl)-1-methyl-4-(1-methyl-4-(4-(2-(quinolin-3-yl)vinyl)benzamido)-1H-pyrrole-2-carboxamido)-1H-pyrrole-2-carboxamide]	5 to 25 (≈ 3.15 to 15.8 µg/mL)	> 100	> 100
CN(C)c1ccc(/C=C/c2ccc(C(=O)Nc3cc(C(=O)Nc4cc(C(=O)NCCCCCC(=N)N)n(C)c4)n(C)c3)cn2)cc1 [II4, (E)-N-(5-((5-((6-amino-6-iminohexyl)carbamoyl)-1-methyl-1H-pyrrol-3-yl)carbamoyl)-1-methyl-1H-pyrrol-3-yl)-6-(4-(dimethylamino)styryl)nicotinamide]	5 to 25 (≈ 3.12 to 15.6 µg/mL)	> 100	> 100
CN(C)C(=O)c1cc(NC(=O)c2cc(NC(=O)c3ccc(/C=C/c4cnc5ccccc5c4)cc3)cn2C)cn1C [IVa16, (E)-N,N,1-trimethyl-4-(1-methyl-4-(4-(2-(quinolin-3-yl)vinyl)benzamido)-1H-pyrrole-2-carboxamido)-1H-pyrrole-2-carboxamide]	< 5	< 5	> 100
CCCNC(=O)c1cc(NC(=O)c2cc(NC(=O)c3ccc(/C=C/c4cnc5ccccc5c4)cc3)cn2C)cn1C [IVa17, (E)-1-methyl-4-(1-methyl-4-(4-(2-(quinolin-3-yl)vinyl)benzamido)-1H-pyrrole-2-carboxamido)-N-propyl-1H-pyrrole-2-carboxamide]	< 5	< 5	> 100
COCCNC(=O)c1cc(NC(=O)c2cc(NC(=O)c3ccc(/C=C/c4cnc5ccccc5c4)cc3)cn2C)cn1C [IVa18, (E)-N-(2-methoxyethyl)-1-methyl-4-(1-methyl-4-(4-(2-(quinolin-3-yl)vinyl)benzamido)-1H-pyrrole-2-carboxamido)-1H-pyrrole-2-carboxamide]	< 5	< 5	> 100
CNC(=N)CCNC(=O)c1cc(NC(=O)c2cc(NC(=O)c3ccc(/C=C/c4ccc(C(F)(F)F)cc4)cc3)cn2C)cn1C [Ia2, (E)-N-(3-imino-3-(methylamino)propyl)-1-methyl-4-(1-methyl-4-(4-(4-(trifluoromethyl)styryl)benzamido)-1H-pyrrole-2-carboxamido)-1H-pyrrole-2-carboxamide]	< 5		> 100
CNC(=N)CCNC(=O)c1cc(NC(=O)c2cc(NC(=O)c3ccc(/C=C/c4ccc5ccccc5c4)cc3)cn2C)cn1C [Ia4, (E)-N-(3-imino-3-(methylamino)propyl)-1-methyl-4-(1-methyl-4-(4-(2-(naphthalen-2-yl)vinyl)benzamido)-1H-pyrrole-2-carboxamido)-1H-pyrrole-2-carboxamide]	5 to 25 (≈ 3.01 to 15 µg/mL)		> 100
CONC(=N)CCNC(=O)c1cc(NC(=O)c2cc(NC(=O)c3ccc(/C=C/c4cccc(OC)c4)cc3)cn2C)cn1C [Ia29, (E)-N-(3-imino-3-(methoxyamino)propyl)-4-(4-(4-(3-methoxystyryl)benzamido)-1-methyl-1H-pyrrole-2-carboxamido)-1-methyl-1H-pyrrole-2-carboxamide]	< 5	5 to 25 (≈ 2.99 to 14.9 µg/mL)	> 100
[H]/N=C(\CCNC(=O)c1cc(NC(=O)c2cc(NC(=O)c3ccc(C=Cc4ccc5nonc5c4)cc3)cn2C)cn1C)NOC [Ia30, (E)-4-(4-(2-(benzo[c][1,2,5]oxadiazol-5-yl)vinyl)benzamido)-N-(5-((3-imino-3-(methoxyamino)propyl)carbamoyl)-1-methyl-1H-pyrrol-3-yl)-1-methyl-1H-pyrrole-2-carboxamide]	5 to 25 (≈ 3.05 to 15.2 µg/mL)	5 to 25 (≈ 3.05 to 15.2 µg/mL)	> 100
[H]/N=C(\CCNC(=O)c1cc(NC(=O)c2cc(NC(=O)c3ccc(C=Cc4ccc(N(C)C)cc4)nc3)cn2C)cn1C)NOC [Ia31, (E)-6-(4-(dimethylamino)styryl)-N-(5-((5-((3-imino-3-(methoxyamino)propyl)carbamoyl)-1-methyl-1H-pyrrol-3-yl)carbamoyl)-1-methyl-1H-pyrrol-3-yl)nicotinamide]	< 5	5 to 25 (≈ 3.06 to 15.3 µg/mL)	> 100
Cn1cc(NC(=O)c2cc(NC(=O)c3ccc(/C=C/c4cnc5ccccc5c4)cc3)cn2C)cc1C(=O)NCCC(=N)NCCN1CCSCC1 [Ia47, (E)-N-(3-imino-3-((2-thiomorpholinoethyl)amino)propyl)-1-methyl-4-(1-methyl-4-(4-(2-(quinolin-3-yl)vinyl)benzamido)-1H-pyrrole-2-carboxamido)-1H-pyrrole-2-carboxamide]	5 to 25 (≈ 3.59 to 17.9 µg/mL)	> 100	> 100
Cn1cc(NC(=O)c2cc(NC(=O)c3ccc(/C=C/c4cnc5ccccc5c4)cc3)cn2C)cc1C(=O)NCCC(=N)NCCc1ccccc1 [Ia48, (E)-N-(3-imino-3-(phenethylamino)propyl)-1-methyl-4-(1-methyl-4-(4-(2-(quinolin-3-yl)vinyl)benzamido)-1H-pyrrole-2-carboxamido)-1H-pyrrole-2-carboxamide]	< 5	< 5	> 100
[H]/N=C(\CCNC(=O)c1cc(NC(=O)c2cc(NC(=O)c3ccc(C=Cc4ccc(N(C)C)cc4)nc3)cn2C)cn1C)NCCc1ccccc1 [Ia49, (E)-6-(4-(dimethylamino)styryl)-N-(5-((5-((3-imino-3-(phenethylamino)propyl)carbamoyl)-1-methyl-1H-pyrrol-3-yl)carbamoyl)-1-methyl-1H-pyrrol-3-yl)nicotinamide]	< 5	> 100	> 100
CC/N=C(/CCNC(=O)c1cc(NC(=O)c2cc(NC(=O)c3ccc(/C=C/c4cnc5ccccc5c4)cc3)cn2C)cn1C)NCC [Ia50, N—((Z)-3-(ethylamino)-3-(ethylimino)propyl)-1-methyl-4-(1-methyl-4-(4-((E)-2-(quinolin-3-yl)vinyl)benzamido)-1H-pyrrole-2-carboxamido)-1H-pyrrole-2-carboxamide]	25 to 100 (≈ 16.1 to 64.5 µg/mL)	25 to 100 (≈ 16.1 to 64.5 µg/mL)	> 100
CC/N=C(/CCNC(=O)c1cc(NC(=O)c2cc(NC(=O)c3ccc(/C=C/c4ccc(N(C)C)cc4)nc3)cn2C)cn1C)NCC [Ia51, 6-((E)-4-(dimethylamino)styryl)-N-(5-((5-(((Z)-3-(ethylamino)-3-(ethylimino)propyl)carbamoyl)-1-methyl-1H-pyrrol-3-yl)carbamoyl)-1-methyl-1H-pyrrol-3-yl)nicotinamide]	25 to 100 (≈ 15.9 to 63.8 µg/mL)	25 to 100 (≈ 15.9 to 63.8 µg/mL)	> 100
C/N=C(/CCNC(=O)c1cc(NC(=O)c2cc(NC(=O)c3ccc(/C=C/c4cccc(F)c4)cc3)cn2C)cn1C)NC [Ia64, 4-(4-((E)-3-fluorostyryl)benzamido)-1-methyl-N-(1-methyl-5-(((Z)-3-(methylamino)-3-(methylimino)propyl)carbamoyl)-1H-pyrrol-3-yl)-1H-pyrrole-2-carboxamide]	5 to 25 (≈ 2.92 to 14.6 µg/mL)		
C/N=C(/CCNC(=O)c1cc(NC(=O)c2cc(NC(=O)c3ccc(/C=C/c4ccc(F)cc4)nc3)cn2C)cn1C)NC [Ia65, 6-((E)-4-fluorostyryl)-N-(1-methyl-5-((1-methyl-5-(((Z)-3-(methylamino)-3-(methylimino)propyl)carbamoyl)-1H-pyrrol-3-yl)carbamoyl)-1H-pyrrol-3-yl)nicotinamide]	< 5		
CC[N+](C)(C)CCCNC(=O)c1cc(NC(=O)c2cc(NC(=O)c3ccc(/C=C/c4cccc(C(F)(F)F)c4)nc3)cn2C)cn1C [Ic20, (E)-N-ethyl-N,N-dimethyl-3-(1-methyl-4-(1-methyl-4-(6-(3-(trifluoromethyl)styryl)nicotinamido)-1H-pyrrole-2-carboxamido)-1H-pyrrole-2-carboxamido)propan-1-aminium]	25 to 100		
CC[N+](C)(C)CCCNC(=O)c1cc(NC(=O)c2cc(NC(=O)c3ccc(/C=C/c4ccc(F)c(OC)c4)nc3)cn2C)cn1C [Ic21, (E)-N-ethyl-3-(4-(4-(6-(4-fluoro-3-methoxystyryl)nicotinamido)-1-methyl-1H-pyrrole-2-carboxamido)-1-methyl-1H-pyrrole-2-carboxamido)-N,N-dimethylpropan-1-aminium]	25 to 100		
CC[N+](C)(C)CCCNC(=O)c1cc(NC(=O)c2cc(NC(=O)c3ccc(/C=C/c4ccc5nonc5c4)cc3)cn2C)cn1C [Ic22, (E)-3-(4-(4-(4-(2-(benzo[c][1,2,5]oxadiazol-5-yl)vinyl)benzamido)-1-methyl-1H-pyrrole-2-carboxamido)-1-methyl-1H-pyrrole-2-carboxamido)-N-ethyl-N,N-dimethylpropan-1-aminium]	25 to 100		
CC[N+](C)(C)CCCNC(=O)c1cc(NC(=O)c2cc(NC(=O)c3ccc(/C=C/c4cnc5ccccc5c4)cc3)cn2C)cn1C [Ic23, (E)-N-ethyl-N,N-dimethyl-3-(1-methyl-4-(1-methyl-4-(4-(2-(quinolin-3-yl)vinyl)benzamido)-1H-pyrrole-2-carboxamido)-1H-pyrrole-2-carboxamido)propan-1-aminium]	5 to 25		
